# Measured values: patent US7714140B2, “1,2 Benzoisothiazole derivative, and agricultural or horticultural plant disease- controlling agent” (Kumiai Chemical Industry, Co. Ltd., priority 2006, dated 2010)
# Tests used:
# Pyricularia oryzae = assay type: in vivo; conditions: paddy rice (Aichi Asahi), root treatment with wettable powder, active ingredient 30 g per 10 ares; inoculated 26 days after treatment; lesions counted 8 days after inoculation
# [1] = tested on: Colletotrichum orbiculare; assay: Test for preventive effect for cucumber anthracnose; conditions: cucumber (Sagamihanjiro), soil drench 10 ml, inoculated 7 days later, lesions counted 7 days after
# Procedure: Four cucumber seeds (variety: Sagamihanjiro) were sowed in a plastic cup of 5.5 cm in diameter, at a depth of 2 cm, and were grown in a greenhouse for 7 days. […] 10 ml of the dilution was poured into the soil at the root of young cucumber seedlings having cotyledons. 7 days later, a conidia suspension (10^5 to 10^6/ml) of Colletotrichum orbiculare which had been cultured in a PDA plate medium, was uniformly inoculated to the cucumber plant by hand spraying. The cup was allowed to stand in a moist chamber of 25° C. for 24 hours. Then, the cup was allowed to stand on a basin in a glass greenhouse and, 7 day later, the number of lesions of all cotyledons in pot was examined. A protective value was calculated from the expression 1 and evaluated according to the standard of Table 2.
# Using a comparative compound shown below, a wettable powder was prepared according to Example 5. A control number thereof was calculated in the same manner as in the above Test Example.
# [2] = concentration of active ingredient 1 ppm
# [3] = concentration of active ingredient 10 ppm
SMILES,Evaluation (protective value) (Pyricularia oryzae),"Evaluation (protective value) [1, 2]","Evaluation (protective value) [1, 3]",melting point [°C]
"O=S1(=O)N=C(OCc2ccncc2)c2ccccc21 [Comparative compound 1, reference compound]",C (protective value: less than 80.0% to 50.0% or more),D (protective value: less than 50.0%),B (protective value: less than 90.0% to 80.0% or more),
"O=S1(=O)N=C(OCc2snc(Cl)c2Cl)c2ccccc21 [Compound No. 1, 3-(3,4-dichloroisothiazol-5-ylmethoxy)-1,2-benzoisothiazole 1,1-dioxide]",B (protective value: less than 90.0% to 80.0% or more),A (protective value: 100% to 90.0% or more),A (protective value: 100% to 90.0% or more),
"C=CCOC1=NS(=O)(=O)c2ccccc21 [Probenazole, reference compound]",C (protective value: less than 80.0% to 50.0% or more),,,
"Cc1cc(COC2=NS(=O)(=O)c3ccccc32)sn1 [compound 5, 3-(3-methylisothiazol-5-ylmethoxy)-1,2-benzoisothiazole 1,1-dioxide]",B (protective value: less than 90.0% to 80.0% or more),D (protective value: less than 50.0%),A (protective value: 100% to 90.0% or more),202 to 204
